Measurements taken from patent US6596265B1, “Use of sophorolipids comprising diacetyl lactones as agent for stimulating skin fibroblast metabolism” (Institut Français du Pétrole, priority 1998, dated 2003).
“And” between values parts separate entries of the source, which are not always exact repeats. Identical values can stand only once. Marks after values point to notes of the source that are not given here.

Assays:
Type in all cases: cell-based
Conditions in all cases: 100 μg/ml, 3 days incubation
[1] = test system: normal human dermal fibroblast cultures; assay: Protein content of fibroblast cell layers (cell division), Coomassie Blue/Bradford
Description: The effects of the product on cell division were evaluated by measuring the DNA and proteins in the cell layers after 3 days of incubation. Fibroblasts were isolated from the operative residue of abdominal plastic surgery carried out on a person. The cells were cultivated in fibroblast culture medium (FCM) at 37° C. in a moist atmosphere containing 5% of CO2 until confluence of the monolayers. The culture medium used was fibroblast culture medium (FCM), constituted by MEM/M199 (¾, ¼, v/v) with added penicillin (50 IU/ml), streptomycin (50 μg/ml), sodium bicarbonate (0.2%, wv/v) and SVF (10%, v/v). The fibroblast incubation medium (FIM) with the products was constituted by MEM/M199 (¾, ¼, v/v) with added penicillin (50 IU/ml), streptomycin (50 μg/ml), sodium bicarbonate (0.2%, w/v) and SVF (2%, v/v). It contained 1 μCi/ml of tritiated proline. The purified lactone fraction was diluted in FIM and was tested at 0.02, 0.08 and 0.4 μg/ml (dry matter). The unrefined sophorolipids were tested at 0.08; 0.4 and 2 μg/ml. The ascorbic acid was tested at 100 μg/ml (0.5 mM) in FIM. The fibroblast cultures were incubated for 3 days at 37° C. in a moist atmosphere containing 5% of CO2. Reference cultures, incubated in the absence of the products to be tested, were produced in parallel. The tests were carried out in triplicate. […]

[2] = test system: normal human dermal fibroblasts; assay: DNA content of fibroblast cell layers (cell division), HOECHST 33258 fluorimetry
Description: The effects of the product on cell division were evaluated by measuring the DNA and proteins in the cell layers after 3 days of incubation. Fibroblasts were isolated from the operative residue of abdominal plastic surgery carried out on a person. The cells were cultivated in fibroblast culture medium (FCM) at 37° C. in a moist atmosphere containing 5% of CO2 until confluence of the monolayers. The culture medium used was fibroblast culture medium (FCM), constituted by MEM/M199 (¾, ¼, v/v) with added penicillin (50 IU/ml), streptomycin (50 μg/ml), sodium bicarbonate (0.2%, wv/v) and SVF (10%, v/v). The fibroblast incubation medium (FIM) with the products was constituted by MEM/M199 (¾, ¼, v/v) with added penicillin (50 IU/ml), streptomycin (50 μg/ml), sodium bicarbonate (0.2%, w/v) and SVF (2%, v/v). It contained 1 μCi/ml of tritiated proline. The purified lactone fraction was diluted in FIM and was tested at 0.02, 0.08 and 0.4 μg/ml (dry matter). The ascorbic acid was tested at 100 μg/ml (0.5 mM) in FIM. The fibroblast cultures were incubated for 3 days at 37° C. in a moist atmosphere containing 5% of CO2. Reference cultures, incubated in the absence of the products to be tested, were produced in parallel. The tests were carried out in triplicate. After incubation, the incubation media were removed then the cell layers were rinsed with PBS The cells were then lysed by ultrasound. The DNA was assayed using a fluorimetric method using HOECHST 33258 reactant. The proteins in the cell lysate were assayed using the Coomassie Blue method described by Bradford. These assays ensured a suitable interpretation of the results obtained for collagen neosynthesis. Treatment of data: the groups of data (reference group and treated groups) were processed by a one-way variance analysis (ANOVA 1, p<0.05) followed by a Dunnett test (p<0.05). The effect of the products was thus compared with the control group.

[3] = test system: normal human dermal fibroblast cultures; assay: Collagen neosynthesis: tritiated proline incorporation into cell layer collagens
Description: The effect of purified lactones on the synthesis of collagens in normal human dermal fibroblast cultures was studied. Collagyens are quantitatively the major dermal proteins. Proline and hydroxyproline constitute 30% of the constituent amino acids of collagens (a high percentage and much higher than that of the majority of other fibroblast proteins). Hydroxyproline is not an amino acid incorporated during the synthesis of collagens, as is the case with proline. Hydroxylation of proline, which leads to the presence of hydroxyproline in collagens, is a collagen maturation process which occurs once synthesis is complete. Measuring the incorporation of tritiated proline into fibroblast proteins thus provides a good index of collagen neosynthesis. […] Collagen neosynthesis was measured by monitoring the incorporation of radiolabelled proline into newly synthesised fibroblast proteins. […] Fractions (1) and (2) were measured together and grouped under the title “cell layer collagens”. […] Measurement of incorporation of tritiated proline into “cell layer collagens” the incorporation of tritiated proline into neosynthesised fibroblast proteins, the proteins present in the cells and deposited in the extracellular matrix, was evaluated after 3 days of incubation. The radioactivity of the cell lysate obtained as described above was measured by liquid scintillation with a β particle counter. […]

[4] = test system: normal human dermal fibroblast cultures; assay: Collagen neosynthesis: tritiated proline incorporation into secreted collagens (culture medium, >30 kD)
Description: The effect of purified lactones on the synthesis of collagens in normal human dermal fibroblast cultures was studied. Collagyens are quantitatively the major dermal proteins. Proline and hydroxyproline constitute 30% of the constituent amino acids of collagens (a high percentage and much higher than that of the majority of other fibroblast proteins). Hydroxyproline is not an amino acid incorporated during the synthesis of collagens, as is the case with proline. Hydroxylation of proline, which leads to the presence of hydroxyproline in collagens, is a collagen maturation process which occurs once synthesis is complete. […] Collagen neosynthesis was measured by monitoring the incorporation of radiolabelled proline into newly synthesised fibroblast proteins. […] Fractions (1) and (2) were measured together and grouped under the title “cell layer collagens”. […] Measurement of incorporation of tritiated proline into “secreted collagens”: the incorporation of tritiated proline into neosynthesised collagens secreted in the culture medium was evaluated after 3 days of incubation. […] The radioactivity of the high molecular weight protein fraction (retained on the filters) corresponded almost exclusively to the secreted collagens and was measured by liquid scintillation with a β particle counter. […]

SMILES: O=C1O[C@H]([C@@H](O)CO)C(O)=C1O [Ascorbic acid, ascorbic acid]
- Proteins in cell layer [1]: 108 % of reference
- DNA content, percentage of control [2]: 90 percentage of control
- DNA content, mean ([2]; mean of triplicate): 7.5 μg/cell layer
- DNA content, individual culture ([2]; single replicate): 10 μg/cell layer and 6 μg/cell layer (2×)
- Cell layer collagens [3]: 168%* % of control
- Increase of cell layer collagens, factor ([3]; factor versus control): 0.68
- Secreted collagens (culture medium) [4]: 181%* % of control
- Increase of secreted collagens, factor ([4]; factor versus control): 1.81
